Source: PubChem BioAssay AID330 (DTP/NCI, 2004)
Toxic doses and inconclusive results are not listed.

Tested on: P388 leukemia ip, CD2F1 mice, survival T/C
Assay: NCI In Vivo Anticancer Drug Screen. Data for tumor model P388 Leukemia (intraperitoneal) in CD2F1 (CDF1) mice
Settings: endpoint: median survival time, higher = longer survival
In short: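 Mice carrying the transplanted tumor received test compound or vehicle. Survival was recorded in each group, and the value is the treated-group measurement divided by that of the vehicle-treated control group.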

[1] = dose: 50.0 mg/kg/injection, schedule: Q01DX009 (ip), vehicle: saline
[2] = dose: 100.0 mg/kg/injection, schedule: Q01DX009 (ip), vehicle: saline
[3] = dose: 200.0 mg/kg/injection, schedule: Q01DX009 (ip), vehicle: saline
[4] = dose: 50.0 mg/kg/injection, schedule: Q01DX005 (ip), vehicle: Klucel (hydroxypropylcellulose) (HPC)
[5] = dose: 100.0 mg/kg/injection, schedule: Q01DX005 (ip), vehicle: Klucel (hydroxypropylcellulose) (HPC)
[6] = dose: 60.0 mg/kg/injection, schedule: Q01DX005 (ip), vehicle: saline with Tween-80
[7] = dose: 120.0 mg/kg/injection, schedule: Q01DX005 (ip), vehicle: saline with Tween-80
[8] = dose: 240.0 mg/kg/injection, schedule: Q01DX005 (ip), vehicle: saline with Tween-80
[9] = dose: 100.0 mg/kg/injection, schedule: Q01DX001 (ip), vehicle: saline with Tween-80
[10] = dose: 200.0 mg/kg/injection, schedule: Q01DX001 (ip), vehicle: saline with Tween-80
[11] = dose: 50.0 mg/kg/injection, schedule: Q01DX009 (ip), vehicle: saline with Tween-80
[12] = dose: 12.5 mg/kg/injection, schedule: Q01DX001 (ip), vehicle: saline
[13] = dose: 25.0 mg/kg/injection, schedule: Q01DX001 (ip), vehicle: saline
[14] = dose: 50.0 mg/kg/injection, schedule: Q01DX001 (ip), vehicle: saline
[15] = dose: 3.13 mg/kg/injection, schedule: Q01DX009 (ip), vehicle: saline with Tween-80

`CC(Nc1cccc(Cl)c1)S(=O)(=O)O` (stereo not given) was tested, and the T/C [1] was 100 % of control, the T/C [2] was 100 % of control and the T/C [3] was 94 % of control.

`CCOC(=O)c1c[nH]c2c(Cl)c(Cl)ccc2c1=O` was tested, and the T/C (dose: 50.0 mg/kg/injection, schedule: Q01DX009 (ip), vehicle: Klucel (hydroxypropylcellulose) (HPC)) was 102 % of control and the T/C (dose: 100.0 mg/kg/injection, schedule: Q01DX009 (ip), vehicle: Klucel (hydroxypropylcellulose) (HPC)) was 95 % of control.

`CC(C)(C)n1nc(C2CC2)cc1NC(=O)Nc1ccccc1` was tested, and the T/C (dose: 30.0 mg/kg/injection, schedule: Q01DX005 (ip), vehicle: Klucel (hydroxypropylcellulose) (HPC)) was 99 % of control, the T/C (dose: 60.0 mg/kg/injection, schedule: Q01DX005 (ip), vehicle: Klucel (hydroxypropylcellulose) (HPC)) was 98 % of control and the T/C (dose: 120.0 mg/kg/injection, schedule: Q01DX005 (ip), vehicle: Klucel (hydroxypropylcellulose) (HPC)) was 98 % of control.

With `COC1=C(C)C(=O)C2=C(C1=O)C1C3CC4=C(C(=O)C(OC)=C(C)C4=O)C(CNC(=O)C(C)=O)N3C(C#N)C(C2)N1C` (stereo not given) the T/C (dose: 0.06 mg/kg/injection, schedule: Q01DX009 (ip), vehicle: Klucel (hydroxypropylcellulose) (HPC)) was 122 % of control, the T/C (dose: 0.31 mg/kg/injection, schedule: Q01DX009 (sc), vehicle: Klucel (hydroxypropylcellulose) (HPC)) was 107 % of control and the T/C (dose: 0.62 mg/kg/injection, schedule: Q01DX009 (ip), vehicle: Klucel (hydroxypropylcellulose) (HPC)) was 160 % of control. The T/C (dose: 0.62 mg/kg/injection, schedule: Q01DX009 (sc), vehicle: Klucel (hydroxypropylcellulose) (HPC)) was 115 % of control, the T/C (dose: 1.0 mg/kg/injection, schedule: Q01DX009 (ip), vehicle: saline) was 156 % of control and the T/C (dose: 1.25 mg/kg/injection, schedule: Q01DX009 (ip), vehicle: Klucel (hydroxypropylcellulose) (HPC)) was 107 % of control. For the same compound, the T/C (dose: 1.25 mg/kg/injection, schedule: Q01DX009 (sc), vehicle: Klucel (hydroxypropylcellulose) (HPC)) was 118 % of control and the T/C (dose: 2.0 mg/kg/injection, schedule: Q01DX009 (ip), vehicle: saline) was 87 % of control.

`Nn1c(-c2nn[nH]n2)nnc1-c1nn[nH]n1` was tested, and the T/C (dose: 25.0 mg/kg/injection, schedule: Q01DX005 (ip), vehicle: Klucel (hydroxypropylcellulose) (HPC)) was 100 % of control, the T/C [4] was 100 % of control and the T/C [5] was 95 % of control.

With `CC1(Cn2ccc(=O)[nH]c2=O)CC(C2(C)OCCO2)C(=O)O1` (stereo not given) the T/C [6] was 102 % of control, the T/C [7] was 102 % of control and the T/C [8] was 101 % of control.

For `CCOC(=O)C/C(=N\Nc1ccc([N+](=O)[O-])cc1[N+](=O)[O-])c1ccccc1`, the T/C [9] was 100 % of control, the T/C [10] was 100 % of control and the T/C (dose: 400.0 mg/kg/injection, schedule: Q01DX001 (ip), vehicle: saline with Tween-80) was 100 % of control.

In the case of `CCOC1OCN(C2CCCCC2)CC1(C)C` (stereo not given), the T/C [11] was 109 % of control and the T/C (dose: 200.0 mg/kg/injection, schedule: Q01DX009 (ip), vehicle: saline with Tween-80) was 110 % of control.

For `Cc1nnc2c(c(=O)n(C)c(=O)n2C)[n+]1[O-]`, the T/C [12] was 105 % of control, the T/C [13] was 109 % of control and the T/C [14] was 106 % of control.

In the case of `CC1(C)OC2CC3CC(O)CC3C2O1` (stereo not given), the T/C [6] was 98 % of control, the T/C [7] was 102 % of control and the T/C [8] was 102 % of control.

`O=c1oc2cccc(O)c2s1` was tested, and the T/C [12] was 97 % of control, the T/C [13] was 99 % of control and the T/C (dose: 50.0 mg/kg/injection, schedule: Q01DX001 (ip), vehicle: Klucel (hydroxypropylcellulose) (HPC)) was 106 % of control. The T/C [14] was 98 % of control.

For `Cc1[nH]nc2c(=O)n(C)cnc12`, the T/C (dose: 25.0 mg/kg/injection, schedule: Q01DX005 (ip), vehicle: water) was 100 % of control, the T/C (dose: 50.0 mg/kg/injection, schedule: Q01DX005 (ip), vehicle: water) was 94 % of control and the T/C (dose: 100.0 mg/kg/injection, schedule: Q01DX005 (ip), vehicle: water) was 92 % of control. The T/C (dose: 200.0 mg/kg/injection, schedule: Q01DX005 (ip), vehicle: water) was 93 % of control and the T/C (dose: 400.0 mg/kg/injection, schedule: Q01DX005 (ip), vehicle: water) was 91 % of control.

With `NC(=O)CC(N)C(=O)O.[Cl-].[Cl-].[Cl-].[Cl-].[Pt+2]` (stereo not given) the T/C (dose: 1.56 mg/kg/injection, schedule: Q01DX009 (ip), vehicle: water) was 99 % of control, the T/C (dose: 3.13 mg/kg/injection, schedule: Q01DX009 (ip), vehicle: water) was 100 % of control and the T/C (dose: 6.25 mg/kg/injection, schedule: Q01DX009 (ip), vehicle: water) was 100 % of control.

With `[CH3][Ge]([CH3])([CH3])/[C](=[C](\c1ccccc1)[Ge]([CH3])([CH3])[CH3])c1ccccc1` the T/C [1] was 106 % of control, the T/C [2] was 92 % of control and the T/C [3] was 93 % of control.

With `CC(C)(C)C1CCC(NC(=O)c2ccccc2)CC1` (stereo not given) the T/C [15] was 99 % of control, the T/C (dose: 6.25 mg/kg/injection, schedule: Q01DX009 (ip), vehicle: saline with Tween-80) was 99 % of control and the T/C (dose: 12.5 mg/kg/injection, schedule: Q01DX009 (ip), vehicle: saline with Tween-80) was 93 % of control. For the same compound, the T/C (dose: 25.0 mg/kg/injection, schedule: Q01DX009 (ip), vehicle: saline with Tween-80) was 99 % of control.

`C=CCOc1cc2c(cc1C/C=C\c1ccc(OC)cc1)OCO2` was tested, and the T/C [6] was 102 % of control, the T/C [7] was 104 % of control and the T/C [8] was 101 % of control.

With `COc1cc(-c2[o+]c3cc(O)cc(O)c3cc2OC2OC(CO)C(O)C(O)C2O)cc(OC)c1O` (stereo not given) the T/C (dose: 25.0 mg/kg/injection, schedule: Q01DX009 (ip), vehicle: saline sonified) was 100 % of control, the T/C (dose: 50.0 mg/kg/injection, schedule: Q01DX009 (ip), vehicle: saline sonified) was 100 % of control and the T/C (dose: 100.0 mg/kg/injection, schedule: Q01DX009 (ip), vehicle: saline sonified) was 100 % of control.

`O=C1Oc2ccc3ccccc3c2CC1C(=O)c1ccc(Cl)cc1` (stereo not given) was tested, and the T/C [11] was 88 % of control and the T/C (dose: 100.0 mg/kg/injection, schedule: Q01DX009 (ip), vehicle: saline with Tween-80) was 88 % of control.

With `Cc1cc(N(C)C)ccc1/C=C/c1ccnc2ccccc12` the T/C (dose: 25.0 mg/kg/injection, schedule: Q04DX002 (ip), vehicle: saline with Tween-80) was 109 % of control, the T/C (dose: 50.0 mg/kg/injection, schedule: Q04DX002 (ip), vehicle: saline with Tween-80) was 118 % of control and the T/C (dose: 100.0 mg/kg/injection, schedule: Q04DX002 (ip), vehicle: saline with Tween-80) was 113 % of control.

In the case of `O=S1Nc2ccccc2[C@H]2[C@@H]1[C@H]1O[C@@H]2c2ccccc21` (stereo not given in full), the T/C [4] was 112 % of control, the T/C [5] was 105 % of control and the T/C (dose: 240.0 mg/kg/injection, schedule: Q01DX005 (ip), vehicle: Klucel (hydroxypropylcellulose) (HPC)) was 101 % of control.

In the case of `O=C1CC(c2cccc(S(=O)(=O)O)c2)=NN1c1ccc([N+](=O)[O-])cn1`, the T/C (dose: 100.0 mg/kg/injection, schedule: Q04DX003 (ip), vehicle: saline) was 108 % of control, the T/C (dose: 200.0 mg/kg/injection, schedule: Q04DX003 (ip), vehicle: saline) was 100 % of control and the T/C (dose: 400.0 mg/kg/injection, schedule: Q04DX003 (ip), vehicle: saline) was 106 % of control.

With `Cc1cc(CN2CCN(CCO)CC2)c(O)c(CN2CCN(CCO)CC2)c1` the T/C (dose: 60.0 mg/kg/injection, schedule: Q01DX005 (ip), vehicle: saline) was 105 % of control and the T/C (dose: 120.0 mg/kg/injection, schedule: Q01DX005 (ip), vehicle: saline) was 102 % of control.

With `Cc1ccc(OP(=O)(Oc2ccc(C)cc2)Oc2ccc(C)cc2)cc1.Cc1ccc(OP(=O)(Oc2ccc(C)cc2)Oc2ccc(C)cc2)cc1.[Cl][Co][Cl]` the T/C (dose: 100.0 mg/kg/injection, schedule: Q01DX001 (ip), vehicle: Klucel (hydroxypropylcellulose) (HPC)) was 96 % of control, the T/C (dose: 200.0 mg/kg/injection, schedule: Q01DX001 (ip), vehicle: Klucel (hydroxypropylcellulose) (HPC)) was 100 % of control and the T/C (dose: 400.0 mg/kg/injection, schedule: Q01DX001 (ip), vehicle: Klucel (hydroxypropylcellulose) (HPC)) was 92 % of control.

For `COc1cc(OC)c(/C=C/c2c3ccccc3cc[n+]2C)c(OC)c1`, the T/C (dose: 0.39 mg/kg/injection, schedule: Q01DX009 (ip), vehicle: saline with Tween-80) was 108 % of control, the T/C (dose: 0.78 mg/kg/injection, schedule: Q01DX009 (ip), vehicle: saline with Tween-80) was 121 % of control and the T/C [15] was 152 % of control.

`CCOC(=O)Nc1cc(NC/C(=N/O)c2ccc([N+](=O)[O-])cc2)c([N+](=O)[O-])c(N)n1` was tested, and the T/C (dose: 50.0 mg/kg/injection, schedule: Q01DX001 (ip), vehicle: saline with Tween-80) was 92 % of control, the T/C [9] was 92 % of control and the T/C [10] was 89 % of control.
